In brackets after ≈: the same amount, converted by molar mass.
Experiments:
[1] = Solubility in biological vehicles (SGF, FaSSIF, FeSSIF) at 37° C., HPLC; format: physicochemical; conditions: for Solubility / solubility at 2 h: 2 h; for solubility at 0.5 h / solubility at 2 h: 37 °C, thermodynamic from solid
Description: An Agilent HPLC 1260 series instrument was used in an HPLC analysis method. The HPLC method for testing solubility and stability was as follows:
In the experiment, the solubilities of the free-base crystal form and the acetate crystal form were determined at 37° C. in biological vehicles (simulated gastric fluid (SGF), fasted state stimulated intestinal fluid (FaSSIF) and fed state stimulated intestinal fluid (FeSSIF)). 3 mg of a sample was added to a sample bottle, and 1 mL of biologically relevant vehicle was added to the same. The suspension was shaken at a speed of 500 rpm at 37° C.

[2] = Pharmacokinetics of Compounds 27, 16, 14 and 22 in SD rats; format: in vivo; conditions: for AUC(0-t) / Cmax / half-life / clearance: Sprague-Dawley, rat, in vivo; for clearance: read-out: Cl—pred (converted)
Source text: WinNonlin® 6.4 was used as the calculation software for PK parameters.

[3] = Pharmacokinetics of test compounds in SD rats (15.2; IV and PO, mixed administration); format: in vivo; conditions: for AUC(0-t) / Cmax / half-life: male, Sprague-Dawley, rat, plasma; for half-life: read-out: T½ (converted)
Description: Administration dose: the compounds in this group were all administered in a mixed way, with 6 compounds in each group for mixed PO administration.
Blood was collected based on the blood collection points in the test protocol. 50 μL of plasma sample was added with acetonitrile (containing 5 ng/mL Verapamil) being 3 folds of the volume thereof; the resulting mixture was vortexed for 30 s, and then centrifuged for 15 min at 15,000 rpm at 4° C.; and 10μ L of supernatant was taken for LC-MS/MS analysis.
For each compound, 3 male SD rats weighing 200-220 g were fasted for one night before dosage, but had access to water.
Orally intragastric administration: before intragastric administration and at 0.083 h, 0.25 h, 0.5 h, 1 h, 2 h, 4 h, 8 h and 24 h after administration (for Compounds 40, 27, 40 and 47), or at 0.25 h, 0.5 h, 1 h, 4 h, 6 h and 8 h after administration (for Compounds 44 and 48), orbital blood was collected and put in a test tube that was treated with heparin sodium, and after centrifugation, the supernatant plasma was collected for LC-MS/MS analysis.
The plasma samples were processed according to the method for “sample treatment” and then analyzed by LC-MS/MS, accompanied with the standard curve and quality control samples. At a time point when the upper limit of quantification was exceeded, the samples were diluted 10 or 100 folds for analysis. All measured data were collected and processed by Analyst 1.6.3 software, and the data were calculated and processed with Microsoft Excel. With DAS 3.2.8 software, the pharmacokinetic parameters were calculated by the statistical moment method. The pharmacokinetic parameters mainly include Tmax, t1/2, Cmax, AUC(0-t), etc.

[4] = as above; format: in vivo; conditions: for Cl_pred / AUC(0-t) / Cmax / half-life: IV; for AUC(0-t) / Cmax / half-life: male, Sprague-Dawley, rat, plasma; for half-life: read-out: T½ (converted)
human ADORA2A = molecular target: T1, human ADORA2A (Homo sapiens, UniProt P29274); assay: Calcium flow test (FLIPR), ADORA2A stably transfected CHO; format: cell-based; conditions: Table 9
T1 construct: host or cells: CHO
Source text: The binding of the A2AR agonist to A2AR could activate a downstream pathway to increase the intracellular calcium ion concentration. The antagonist would competitively occupy the binding site where the agonist binds to A2AR, thereby interrupting the intracellular signal transduction and leading to a change in the intracellular calcium ion concentration. By detecting the strength of the intracellular calcium ion signal, the antagonistic activities of the compound on human ADORA1, ADORA2A, ADORA2B and ADORA3 adenosine receptors were determined. […]
7) The FLIPR instrument software was operated; following a set program, 10 μL of experimental buffer salt solution was added to the cell plate; and fluorescence signals were read. Then, 10 μL of the reference compound of agonist at a predetermined concentration was added to the cell plate, and the fluorescence signals were read. After reading, data was exported by means of “Max-Min” and “Read 91 to Maximum allowed” in the software, the EC80 of each cell line was calculated, and an agonist with a concentration of 6×EC80 was prepared.
9) The FLIPR instrument software was operated; following a set program, 10 μL of the test compound and 10 μL of the reference compound were added at a predetermined concentration to the cell plate; and the fluorescence signals were read. […]

[5] = fasted state simulated intestinal fluid (FaSSIF), fassif
[6] = fed state simulated intestinal fluid (FeSSIF), fessif
[7] = simulated gastric fluid (SGF), simulated gastric fluid, SGF

T1 sequence (P29274 whole entry): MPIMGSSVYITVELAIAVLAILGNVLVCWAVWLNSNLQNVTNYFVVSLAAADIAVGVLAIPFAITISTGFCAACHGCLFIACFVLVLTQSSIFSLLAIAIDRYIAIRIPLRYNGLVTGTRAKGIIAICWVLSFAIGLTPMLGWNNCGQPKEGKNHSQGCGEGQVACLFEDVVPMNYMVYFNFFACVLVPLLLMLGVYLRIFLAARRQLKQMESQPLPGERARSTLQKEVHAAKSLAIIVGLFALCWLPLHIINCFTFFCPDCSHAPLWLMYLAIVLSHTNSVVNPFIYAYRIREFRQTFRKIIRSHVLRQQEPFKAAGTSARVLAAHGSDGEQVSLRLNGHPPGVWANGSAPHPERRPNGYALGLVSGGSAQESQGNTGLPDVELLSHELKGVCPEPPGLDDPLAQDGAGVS

Row | Cl_F_pred ([3]; SD rats, PO, 10 mg/kg) [mL/min/kg] | F ([3]; SD rats, PO, 10 mg/kg) [%] | AUC(0-t) ([3]; SD rats, PO, 10 mg/kg) [ng·h/mL] | Cmax ([3]; SD rats, PO, 10 mg/kg) [ng/mL] | half-life ([3]; SD rats, PO, 10 mg/kg) [min] | Cl_pred ([4]; 1 mg/kg) [mL/min/kg] | AUC(0-t) ([4]; 1 mg/kg) [ng·h/mL] | Cmax ([4]; 1 mg/kg) [ng/mL] | half-life ([4]; 1 mg/kg) [min] | Compound | solubility at 0.5 h [1, 5] [µg/mL] | solubility at 2 h [1, 5] [µg/mL] | solubility at 0.5 h [1, 6] [µg/mL] | solubility at 2 h [1, 6] [µg/mL] | solubility at 0.5 h [1, 7] [µg/mL] | solubility at 2 h [1, 7] [µg/mL] | AUC(0-t) ([2]; IV, dose 1 (mg/kg)) [ng·h/mL] | Cmax ([2]; IV, dose 1 (mg/kg)) [ng/mL] | half-life ([2]; IV, dose 1 (mg/kg)) [min] | clearance ([2]; IV, dose 1 (mg/kg)) [mL/min/kg] | IC50 (human ADORA2A) [nM] | further results
1 |  |  |  |  |  |  |  |  |  | CC(=O)O.Nc1nc(NCCc2ccc(NC3COC3)cc2)nc2nc(-c3ccco3)nn12 [Acetate of Compound 22, 2-(furan-2-yl)-N5-(4-(oxetane-3-ylamino)phenethyl)-[1,2,4]triazolo[1,5-a][1,3,5]triazine-5,7-diamine acetate] | 9.3 | 9.9 | 33.1 | 33.8 | > 2890 | > 2890 |  |  |  |  |  | Solubility ([1]; SGF, acetate): >2887 µg/mL
2 | 139.069 | 127.5 | 1070 | 325 | 145 | 188.857 | 83.8 | 139 | 28.2 | COCCNc1ccc(CCNc2nc(N)n3nc(-c4ccco4)nc3n2)cc1 [Compound 27, 2-(furan-2-yl)-N5-(4-((2-methoxyethyl)amino)phenethyl)-[1,2,4]triazolo[1,5-a][1,3,5]triazine-5,7-diamine] |  |  |  |  |  |  | 477 | 1340 | 30.6 | 36 |  | Cl—F—pred ([2]; PO, dose 5 (mg/kg)): 147 mL/min/kg; F ([2]; PO, dose 5 (mg/kg)): 33.85%; AUC(0-t) ([2]; PO, dose 5 (mg/kg)): 484 ng·h/mL; Cmax ([2]; PO, dose 5 (mg/kg)): 318 ng/mL; half-life ([2]; PO, dose 5 (mg/kg)): 262 min
3 | 22.9228 | 46.97 | 6600 | 2440 | 146 | 11.834 | 1410 | 1280 | 46.8 | Cn1nnc(-c2ccc(CCNc3nc(N)n4nc(-c5ccco5)nc4n3)cc2)n1 [Compound 40, N5-(4-(2-methyl-2H-tetrazol-5-yl)phenethyl)-2-(furan-2-yl)-[1,2,4]triazolo[1,5-a][1,3,5]triazine-5,7-diamine] |  |  |  |  |  |  |  |  |  |  | 1.17 ± 0.62 | half-life ([3]; po, […]): 13.8 min; AUC(0-t) ([3]; SD rats, PO, 2 mg/kg, mixed administration (6 compounds per group)): 2360 ng·h/mL; Cl_pred ([4]; 1.64 mg/kg): 27.0478 mL/min/kg; Cl_F_pred ([4]; PO, […]): 23.254 mL/min/kg; F ([4]; PO, […]): 116.3%; AUC(0-t) ([4]; 1.64 mg/kg): 1010 ng·h/mL; Cmax ([4]; 1.64 mg/kg): 1310 ng/mL; half-life ([4]; 1.64 mg/kg): 31.8 min
4 |  |  |  |  |  |  |  |  |  | Nc1nc(NCCc2ccc(NC3COC3)cc2)nc2nc(-c3ccco3)nn12 [Compound 22, 2-(furan-2-yl)-N5-(4-(oxetan-3-ylamino)phenethyl)-[1,2,4]triazolo[1,5-a][1,3,5]triazine-5,7-diamine] | 3.7 (≈ 9.43 µM) | 4.2 (≈ 10.7 µM) | 7 (≈ 17.8 µM) | 8.8 (≈ 22.4 µM) | 622 (≈ 1590 µM) | 712 (≈ 1810 µM) | 1770 | 2350 | 60 | 9.5 | 0.35 ± 0.07 | Solubility ([1]; SGF, listed as Free base): 712.1 µg/mL (≈ 1810 µM); Cl—F—pred ([2]; PO, dose 3 (mg/kg)): 25.3 mL/min/kg; F ([2]; PO, dose 3 (mg/kg)): 39.49%; AUC(0-t) ([2]; PO, dose 3 (mg/kg)): 2100 ng·h/mL; Cmax ([2]; PO, dose 3 (mg/kg)): 580 ng/mL; half-life ([2]; PO, dose 3 (mg/kg)): 198 min

Reference: patent US20230048888A1, “USE OF TRIAZOLOTRIAZINE DERIVATIVE IN TREATMENT OF DISEASES” (ZHEJIANG VIMGREEN PHARMACEUTICALS, LTD., priority 2019, published 2023)
